# “Also recorded” adds a separate entry of the source.
# Key:
# BE2C-CRBN cells = experiment: Cell-Titer Glo growth of BE2C cells overexpressing CRBN or zsGreen; assay type: cell-based, human; settings: 10 μM, 6 days
# Procedure: Cells were infected with lentiviruses encoding sgRNAs or treated with compounds as described. Colony assays were performed by replating cells at 500 cells per well in 6-well dishes and grown in regular growth media for 10 d before 100% methanol fixation, 0.05% crystal violet staining, and quantitation. Experiments were completed in triplicate; data shown are the average of three independent experiments. Cell Titer-Glo® assay was performed as per the manufacturer's instructions (Promega®). Briefly, 1000 cells/well were plated into 96-well plates and treated with a range of compound dosing. Cell viability was measured at the noted time points based on luminescence by the Cell Titer-Glo® assay (Promega®) and read on an Envision 2104 (PerkinElmer®, USA) according to the manufacturer's protocol.
# sgRNAs targeting individual genes were subcloned by standard methodologies within pLKO.5-EFGP. Kelly, SIMA, BE2C, and NGP cells were infected with lenticas9 followed by blasticidin selection. Stable expression of cas9 was established by western blotting of protein lysates using cas9 antibody (Cell Signaling Technology®). Following infection of pLKO.5-EGFP-sgRNA lentivirus, cells were cultured for the identified times prior to evaluation. BE2C cells were infected with pLC-zsgreen or pLC-CRBN lentiviruses and selected using 500 μg/mL hygromycin (Invitrogen™)
# EP300 = molecular target: T1, EP300 (Homo sapiens, UniProt Q09472); experiment: Western blotting of EP300 in treated NB cells; assay type: cell-based
# T1 construct: Cells growing in culture were lysed for whole cell lysates; endogenous in cells; host or cells: Kelly, NGP, SIMA, BE2C neuroblastoma cells; Kelly xenografts in NSG mice
# T1 sequence (Q09472 whole entry): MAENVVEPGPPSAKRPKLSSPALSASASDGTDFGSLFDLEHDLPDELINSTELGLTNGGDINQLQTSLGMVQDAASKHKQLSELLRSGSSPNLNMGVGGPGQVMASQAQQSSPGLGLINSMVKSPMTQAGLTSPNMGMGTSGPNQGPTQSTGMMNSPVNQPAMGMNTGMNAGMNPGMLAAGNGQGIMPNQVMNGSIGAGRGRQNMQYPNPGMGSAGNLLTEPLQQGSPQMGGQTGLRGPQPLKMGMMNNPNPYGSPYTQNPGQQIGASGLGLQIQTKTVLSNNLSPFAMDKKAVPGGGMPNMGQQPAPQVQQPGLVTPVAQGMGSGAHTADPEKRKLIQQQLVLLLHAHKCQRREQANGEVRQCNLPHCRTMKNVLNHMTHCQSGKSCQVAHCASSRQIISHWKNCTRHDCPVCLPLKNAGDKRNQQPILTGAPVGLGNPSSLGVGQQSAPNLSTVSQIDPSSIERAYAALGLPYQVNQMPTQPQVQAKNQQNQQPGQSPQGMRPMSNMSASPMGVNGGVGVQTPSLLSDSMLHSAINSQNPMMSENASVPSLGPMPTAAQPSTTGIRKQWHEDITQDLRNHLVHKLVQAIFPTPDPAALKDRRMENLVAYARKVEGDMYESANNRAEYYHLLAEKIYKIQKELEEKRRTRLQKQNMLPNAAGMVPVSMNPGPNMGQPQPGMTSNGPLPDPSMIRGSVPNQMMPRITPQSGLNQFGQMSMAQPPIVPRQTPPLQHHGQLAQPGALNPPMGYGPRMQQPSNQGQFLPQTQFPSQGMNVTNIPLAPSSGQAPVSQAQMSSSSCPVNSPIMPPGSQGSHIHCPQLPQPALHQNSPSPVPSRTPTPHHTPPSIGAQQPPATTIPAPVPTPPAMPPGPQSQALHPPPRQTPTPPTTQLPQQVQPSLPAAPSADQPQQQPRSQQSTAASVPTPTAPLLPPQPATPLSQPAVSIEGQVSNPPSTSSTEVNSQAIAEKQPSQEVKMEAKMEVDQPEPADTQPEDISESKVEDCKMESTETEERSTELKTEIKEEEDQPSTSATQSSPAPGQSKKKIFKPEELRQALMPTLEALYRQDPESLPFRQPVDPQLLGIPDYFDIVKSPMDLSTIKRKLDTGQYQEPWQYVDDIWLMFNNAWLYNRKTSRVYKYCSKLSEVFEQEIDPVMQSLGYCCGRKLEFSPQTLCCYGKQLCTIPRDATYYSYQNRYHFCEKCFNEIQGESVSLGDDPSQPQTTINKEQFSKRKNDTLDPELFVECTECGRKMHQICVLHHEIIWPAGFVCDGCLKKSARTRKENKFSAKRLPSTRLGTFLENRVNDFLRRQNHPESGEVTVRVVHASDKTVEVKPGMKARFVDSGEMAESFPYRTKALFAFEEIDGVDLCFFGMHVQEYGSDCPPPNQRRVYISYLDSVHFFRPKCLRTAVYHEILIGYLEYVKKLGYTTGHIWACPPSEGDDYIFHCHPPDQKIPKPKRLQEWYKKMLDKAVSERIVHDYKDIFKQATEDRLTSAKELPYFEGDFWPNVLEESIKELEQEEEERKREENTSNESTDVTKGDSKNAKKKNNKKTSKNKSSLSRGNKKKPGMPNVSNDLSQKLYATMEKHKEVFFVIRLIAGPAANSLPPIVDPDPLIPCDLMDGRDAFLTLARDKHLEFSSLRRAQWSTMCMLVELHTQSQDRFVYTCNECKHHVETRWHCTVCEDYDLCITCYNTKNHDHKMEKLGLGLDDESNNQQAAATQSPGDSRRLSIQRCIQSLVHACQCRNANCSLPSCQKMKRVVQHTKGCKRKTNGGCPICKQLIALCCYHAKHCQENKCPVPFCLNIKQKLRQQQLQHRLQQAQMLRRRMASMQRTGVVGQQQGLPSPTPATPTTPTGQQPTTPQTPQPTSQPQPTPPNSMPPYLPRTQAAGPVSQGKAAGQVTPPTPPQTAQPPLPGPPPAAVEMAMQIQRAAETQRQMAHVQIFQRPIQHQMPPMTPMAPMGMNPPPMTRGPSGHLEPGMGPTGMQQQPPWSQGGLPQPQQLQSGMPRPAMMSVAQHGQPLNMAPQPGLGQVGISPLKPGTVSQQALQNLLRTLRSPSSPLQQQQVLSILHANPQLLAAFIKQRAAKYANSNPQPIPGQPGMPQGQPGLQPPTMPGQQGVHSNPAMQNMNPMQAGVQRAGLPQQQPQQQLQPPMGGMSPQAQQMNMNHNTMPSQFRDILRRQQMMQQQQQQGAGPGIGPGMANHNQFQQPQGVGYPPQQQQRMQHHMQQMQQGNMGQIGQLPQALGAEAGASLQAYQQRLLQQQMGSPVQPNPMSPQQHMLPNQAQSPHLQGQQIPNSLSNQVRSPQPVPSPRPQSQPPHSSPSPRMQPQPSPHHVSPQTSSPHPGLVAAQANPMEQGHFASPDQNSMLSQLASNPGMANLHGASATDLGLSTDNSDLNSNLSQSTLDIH
# Procedure: Cells growing in culture were lysed for whole cell lysates as described in Durbin et al. Nat. Genet. 50:1240-1246 (2018) and Wang et al. Nat. Commun. 10:5622 (2019). Nuclear lysates were prepared using the NE-PER® nuclear lysate kit (Thermo Scientific™) according to the manufacturer's protocol. Chromatin lysates were prepared with the total histone extraction kit (Epigentek). Briefly, equivalent amounts of protein were resolved by western blotting using 4-12% Bis-Tris NuPAGE™ gels (Thermo-Fisher Scientific) prior to transfer, and immunoblotting using primary antibodies to: MYCN (1:1000, Cell Signaling Technology®), H3K27ac (1:1000, Abcam), total H3 (1:1000, Cell Signaling Technology®), EP300 (1:1000, Abcam), CBP (1:500, Cell Signaling Technology®), Cas9 (1:1000, Cell Signaling Technology®), cleaved-PARP1 (1:1000, Cell Signaling Technology), cleaved Caspase-3 (1:1000, Cell Signaling Technology®), β-actin (1:1000, Cell Signaling Technology®), GATA3 (1:1000, EMD Millipore™), TFAP2β (1:1000, Cell Signaling Technology®), Vinculin (1:1000, EMD Millipore™), CRBN (1:1000, Cell Signaling Technology®), HAND2 (1:1000, Santa Cruz Biotechnology). Secondary antibodies were horseradish peroxidase (HRP)-conjugated anti-rabbit or anti-mouse (1:5000, Santa Cruz Biotechnology), incubated prior to exposure to enhanced chemiluminescence reagents (GE, Amersham). For immunoprecipitation, equal amounts of protein were diluted in buffer C as described in Mansour et al. Science 346:1373-1377 (2014) and incubated with antibodies covalently conjugated to Dynabeads™ M-270 beads (Thermo-Fisher Scientific) overnight according to the manufacturer's directions. Antibodies used included: H3K27ac, EP300 (Abcam), CBP, TFAP2β (Cell Signaling Technology®), rabbit immunoglobulin G (IgG) (Santa Cruz Biotechnology®). Immunoprecipitated protein was isolated as per the manufacturer's directions and subjected to western blotting, as described above, or mass spectrometry.
# [1] = molecular target: T2, EP300, CRBN and CBP in Kelly cell lysates (Homo sapiens, UniProt Q09472+Q96SW2); experiment: Biotin-JQAD1 pulldown from Kelly cell lysates (streptavidin purification, western blotting); assay type: binding; settings: Kelly cell lysates co-treated with excess pomalidomide
# T2 construct: added to 500 μg of whole Kelly cell lysate; endogenous in cells; host or cells: Kelly neuroblastoma cells (whole cell lysate)
# Procedure: Biotin-JQAD1, synthesized below, was added to 500 μg of whole Kelly cell lysate prepared in immunoprecipitation (IP) lysis buffer (Pierce™ Biotechnology), and incubated for 16 h at 4° C. with end-over-end mixing. One hundred μL of high-capacity streptavidin agarose resin (Pierce™ Biotechnology) was packed into a 1.5 mL Eppendorf tube®, washed three times with cold PBS, prior to addition of cell lysate. Lysate was incubated at room temperature for 10 minutes prior to centrifugation and washing, followed by elution in NuPAGE™ LDS sample buffer with reducing agent (Thermo-Fisher Scientific). Samples were processed by sodium dodecyl sulphate-polyacrylamide gel electrophoresis (SDS-PAGE) as above and blotted using anti-EP300, anti-CRBN, or anti-CBP antibodies.
# [2] = Toxicity study in Balb/c Crbn ILE391VAL humanized knockin mice; assay type: in vivo
# Procedure: For toxicity studies, four female CD1 mice (Charles River Laboratories) were injected intraperitoneally (IP) with single doses of 10 mg/Kg (R,S)-JQAD1 solubilized in 10% hydroxypropyl β-cyclodextrin (Sigma-Aldrich®) in sterile water. Following injection, blood concentration of (R,S)-JQAD1 was measured by serial measurements of animal serum at time points out to 24 h, by liquid chromatography with tandem mass spectrometry (LC-MS/MS) analysis. Pharmacokinetics were performed at ChemPartner in Shanghai, China, using LC-MS/MS method and pharmacokinetics parameters (Tmax, Cmax, T1/2, AUC, etc.) calculated with WinNonlin® V 6.2 statistics software (Pharsight Corporation) using a noncompartmental model. For maximally tolerated dose (MTD) testing, six female CD1 mice were treated with daily IP doses of (R,S)-JQAD1 at 10, 20, or 40 mg/kg. Animals were monitored for animal weight, grooming and behavior daily without noted effects. […] Animal weights, behavior and grooming were monitored daily, for a total of 21 days. At day 14, three mice per treatment group were sacrificed and tissues fixed for immunohistochemistry. Blood samples were obtained by retro-orbital puncture and blood analyzed at the Small Animal Imaging Facility at Beth Israel Deaconess Medical Center (Boston, MA), on a Hemavet® 9500FS (Drew Scientific) for blood counts, creatinine, AST, ALT, ALP, GGTP, and BUN measurements.
# [3] = 40 mg/Kg IP daily, after 14 days, p NS versus vehicle
structure (smiles),measurement,setting,value
"C[C@H](N(Cc1ccc(F)cc1)C(=O)CN1C(=O)O[C@@]2(CCc3cc(NC(=O)CCCCCCCCCCCNc4ccc5c(c4)C(=O)N(C4CCC(=O)NC4=O)C5=O)ccc32)C1=O)C(F)(F)F (stereo partly drawn) [JQAD1, 12-((2-(2,6-dioxopiperidin-3-yl)-1,3-dioxoisoindolin-5-yl)amino)-N-((R)-3′-(2-((4-fluorobenzyl)((S)-1,1,1-trifluoropropan-2-yl)amino)-2-oxoethyl)-2′,4′-dioxo-2,3-dihydrospiro[indene-1,5′-oxazolidin]-5-yl)dodecanamide]",growth of BE2C-CRBN cells,BE2C-CRBN cells,suppressed
same,EP300 expression in BE2C-CRBN cells,"EP300; BE2C cells overexpressing CRBN, 10 μM",degraded within 24 h
same,EP300 expression in control BE2C-zsGreen cells,"EP300; BE2C-zsGreen cells, 10 μM",unaffected
same,"degradation of EP300 on co-treatment with excess A485, pomalidomide, bortezomib or MLN4924","EP300; Kelly cells, 4 h pre-treatment, then JQAD1 500 nM 48 h",blocked
same,EP300 expression,"EP300; Kelly cells, 24 h",dose-dependent decrease in EP300 expression
same,EP300 expression,"EP300; Kelly cells, 24 h, listed as (R,S)-JQAD1",suppressed both H3K27ac and EP300 expression levels
same,EP300 expression (time course),"EP300; Kelly, NGP and SIMA cells",selective loss of EP300 expression by 24 h
same,"EP300, H3K27ac and PARP1 cleavage in control versus CRBN-edited cells","EP300; Kelly-Cas9 cells, 500 nM, 24 h","suppressed EP300 expression and the H3K27ac modification, and induced apoptosis marked by PARP1 cleavage in control knockout cells, but not in CRBN-edited cells"
same,effect of excess pomalidomide on the interaction,[1],"partial loss of the interaction between JQAD1, CRBN, and EP300"
same,tolerability,"[2]; 40 mg/Kg IP daily for 21 days, measurements after 14 days","well tolerated, with no effects on grooming, behavior, weight, peripheral blood counts, liver function tests or creatinine measurements"
same,tissue pathology (hematoxylin and eosin),"[2]; 40 mg/Kg IP daily, 14 days, blinded pathologist",no gross changes in tissue architecture or immune infiltrate; also recorded: no histologic or biochemical evidence of toxicity in the liver
same,ALP,[2]; [3],51
same,ALT,[2]; [3],54
same,AST,[2]; [3],37
same,Albumin,[2]; [3],3.2
same,Basophils,[2]; [3],0.02 K/μL
same,Creatinine,[2]; [3],0.17
same,Eosinophils,[2]; [3],0.10
same,GGTP,[2]; [3],5
same,Hematocrit,[2]; [3],41.2%
same,Hemoglobin,[2]; [3],13.35
same,Lymphocytes,[2]; [3],1.80
same,Monocytes,[2]; [3],0.35 K/μL
same,Neutrophils,[2]; [3],1.2
same,Platelet,[2]; [3],528 K/μL
same,WBC,[2]; [3],3.46 K/μL
same,"toxicity (blood counts, liver and kidney function tests, weight, grooming)",[2]; twice daily 40 mg/Kg IP for 14 days,no toxicity was observed

# Reference: patent US20240156800A1, “EP300 DEGRADER AND USES THEREOF IN NEUROBLASTOMA” (DANA-FARBER CANCER INSTITUTE, INC., priority 2021, published 2024)
